Earlier results on one compound are cited in PMC12163019 (Frontiers in Pharmacology, 2025).

On the set-up of this data set: method as in Danto et al., 2019a. As to conditions: modified-release formulation; ref Danto et al., 2019a.

In general, half-life refers to the time needed for the level to fall by half in the phase considered. Turning to `CC[C@@H]1[C@H](F)C(=O)N[C@@H]1COc1nccc2cc(C(N)=O)c(OC)cc12` [zimlovisertib], the half-life is listed as 38.8 ± 21.1 h.
